Assay results taken from US12329745B2, “Methods and compositions for treating glucocorticoid excess” (Sparrow Pharmaceuticals, Inc., priority 2022, dated 2025).
Marks after values point to notes of the source that are not given here.

Experiments:
[1] = tested on: urine tetrahydrocortisone; assay: Urine tetrahydrocortisone (excreted cortisone metabolite; liver cortisone levels); type: in vivo, human; conditions: healthy adults
Protocol: In healthy adults administered a single dose of 10, 20, or 50 mg SPI-62 (n=40), the least squares mean (standard error) tetrahydrocortisone was 32.71 (1.149) […] compared to 9.19 (2.300) mol after a single dose of matching placebo (n=10). In the same subjects after 14 daily doses, tetrahydrocortisone was 42.73 (1.968) mol for SPI-62 and 8.51 (0.410) mol for placebo. Similar results were also observed in elderly adults.

adipose HSD-1 = molecular target: T1, adipose HSD-1 (Homo sapiens, UniProt P28845); assay: Adipose HSD-1 inhibition by microdialysis (D8 cortisone to D8 cortisol) in subjects with type 2 diabetes given SPI-62; type: in vivo
T1 construct: infused continuously into subcutaneous abdominal adipose tissue via microdialysis catheters; from tissue; host or cells: human subcutaneous abdominal adipose tissue, in vivo
T1 sequence (P28845 whole entry, the tested form may be a part): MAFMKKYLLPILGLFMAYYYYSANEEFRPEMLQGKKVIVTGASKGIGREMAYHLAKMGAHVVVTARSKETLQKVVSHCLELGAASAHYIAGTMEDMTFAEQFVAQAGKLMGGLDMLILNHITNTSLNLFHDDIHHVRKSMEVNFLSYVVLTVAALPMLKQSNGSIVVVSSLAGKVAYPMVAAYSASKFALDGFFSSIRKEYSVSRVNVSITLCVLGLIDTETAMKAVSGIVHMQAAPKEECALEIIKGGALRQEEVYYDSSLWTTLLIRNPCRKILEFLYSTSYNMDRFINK
Protocol: Male and non-menstruating female subjects with type 2 diabetes aged between 18 and 65 years with a body mass index between 30.0 and 45.0 were administered SPI-62 daily for 14 days. […] Percent adipose HSD-1 inhibition was calculated as: 100*(1-(MPFt/MPFbaseline).
The time (t) of the sample was considered to be the midpoint of the collection interval. […] Data shown are the median inhibition observed in two subjects for whom the SPI-62 daily dose was 6 mg.
Male and non-menstruating female subjects with type 2 diabetes aged between 18 and 65 years with a body mass index between 30.0 and 45.0 were administered SPI-62 daily for 14 days. In addition to the six subjects described in Example 1 who received SPI-62 1, 3, or 6 mg for 14 days, six additional subjects received SPI-62 1, 2, 3, or 10 mg for 5 to 8 days. […] Percent adipose HSD-1 inhibition was calculated as: 100*(1-(MPFt/MPFbaseline). The time (t) of the sample was considered to be the midpoint of the collection interval. A higher sensitivity assay for D8 cortisol was used to enable quantitation of adipose HSD-1 inhibition of >95%.

HSD-1 [2] = molecular target: T2, HSD-1 (Homo sapiens, UniProt P28845); assay: Target-mediated drug disposition (TMDD) population PK / PK-PD model
T2 sequence (P28845 whole entry): as the sequence (P28845 whole entry, the tested form may be a part) above

HSD-1 [3] = molecular target: T2, HSD-1; conditions: both, in vivo
C57BL/6 male mice = assay: Mitigation of corticosterone (CORT) adverse effects in mouse; type: in vivo; conditions: for Fat depot weight, Gonadal, Mean / Fat depot weight, Mesenteric, Mean / Fat depot weight, Retroperitoneal, Mean / Fat depot weight, Subcutaneous, Mean / Muscle weight, Quadriceps, Mean / Muscle weight, Tibialis anterior, Mean: post-mortem Day 36
Protocol: A control group received no CORT or SPI-62. Body weight was assessed daily and food consumption twice weekly. Whole body muscle and fat amounts were measured at Days 0, 14, and 28 using an EchoMRI-130H body composition analyzer. Blood samples for fasting glucose and insulin were obtained at Days 1 (pre-dose), 15, 29, and 35. An open field test was conducted on Day 22. A grip strength test was performed on Day 28. After sacrifice on Day 36, gonadal, subcutaneous, retroperitoneal, and mesenteric fat, quadriceps, and tibialis anterior were dissected and weighed, and skin was formalin fixed and paraffin embedded.

Cn1c(-c2ccc(C(N)=O)cc2F)nnc1C(C)(C)Oc1c(F)cc(Cl)cc1F [SPI-62, 4-(5-(2-(4-chloro-2,6-difluorophenoxy)propan-2-yl)-4-methyl-4H-1,2,4-triazol-3-yl)-3-fluorobenzamide]
urine tetrahydrocortisone, least squares mean (standard error) ([1]; after 14 daily doses): 42.73 (1.968) mol
urine tetrahydrocortisone, least squares mean (standard error) ([1]; single dose of 10, 20, or 50 mg (n=40)): 32.71 (1.149) mol
adipose HSD-1 inhibition, 2nd v 14th dose intervals (adipose HSD-1; SPI-62 6 mg daily): almost identical
time after a single dose at which adipose HSD-1 inhibition was detected (adipose HSD-1; SPI-62 6 mg daily, median of two subjects, FIG. 1): 2 to 4 h
adipose HSD-1 inhibition during the 2nd dose interval (adipose HSD-1; SPI-62 6 mg daily, quantitation limited to ~90-95%): maximal measurable levels
adipose HSD-1 inhibition after multiple doses (adipose HSD-1; SPI-62 1, 2, 3, or 10 mg): maximum measurable
tachyphylaxis of human adipose HSD-1 inhibition with multiple dosing (adipose HSD-1; human, in vivo): does not show
adipose HSD-1 inhibition after lower single doses (adipose HSD-1; lower single SPI-62 doses): no or limited
IC50 (HSD-1 [2]): 0.0234 nM
Kd (HSD-1 [2]): 0.183 nM
estimated total target amount (RTOT+RTA) as SPI-62 (HSD-1 [2]; both, human, in vivo): 3.6 mg
Kd lower than the Ki (HSD-1 [2]; in vivo): approximately 60 fold
estimated Kd lower than Ki for purified human HSD-1 (HSD-1 [2]; in vivo): 29 fold
estimated Kd lower than measured Ki for human HSD-1 expressed in CHO cells (HSD-1 [2]; in vivo): 69 fold
Hill coefficient (HSD-1 [2]; model parameter estimate): 1.42
association rate constant (kon) (HSD-1 [2]; model parameter estimate): 1.44 nM⁻¹ h⁻¹
total target amount in the adipose compartment (RTA) (HSD-1 [2]; model parameter estimate): 671 nM
koff (HSD-1 [2]; read-out: dissociation rate constant (koff)): 7.33e-05 s⁻¹
total target amount in the central compartment (RTOT) (HSD-1 [3]): 7.84 µM
Whole-body fat content LSM (C57BL/6 male mice; 1 mg/kg QD + CORT, Day 14): 0.121^a
Whole-body muscle content LSM (C57BL/6 male mice; 1 mg/kg QD + CORT, Day 14): 0.82^a
HOMA-IR LSM (C57BL/6 male mice; 1 mg/kg QD + CORT, Day 15): 3.73ª mmol glucose/μU insulin
Whole-body fat content LSM (C57BL/6 male mice; 1 mg/kg QD + CORT, Day 28): 0.142^ab
Whole-body muscle content LSM (C57BL/6 male mice; 1 mg/kg QD + CORT, Day 28): 0.77^a
HOMA-IR LSM (C57BL/6 male mice; 1 mg/kg QD + CORT, Day 29): 3.56^ab mmol glucose/μU insulin
HOMA-IR LSM (C57BL/6 male mice; 1 mg/kg QD + CORT, Day 35): 8.16^b mmol glucose/μU insulin
Fat depot weight, Gonadal, Mean (C57BL/6 male mice; 1 mg/kg QD + CORT): 10.60 mg/g body weight
Fat depot weight, Mesenteric, Mean (C57BL/6 male mice; 1 mg/kg QD + CORT): 6.46 mg/g body weight
Fat depot weight, Retroperitoneal, Mean (C57BL/6 male mice; 1 mg/kg QD + CORT): 3.33 mg/g body weight
Fat depot weight, Subcutaneous, Mean (C57BL/6 male mice; 1 mg/kg QD + CORT): 4.04 mg/g body weight
Muscle weight, Quadriceps, Mean (C57BL/6 male mice; 1 mg/kg QD + CORT): 3.98 mg/g body weight
Muscle weight, Tibialis anterior, Mean (C57BL/6 male mice; 1 mg/kg QD + CORT): 1.60 mg/g body weight
Whole-body fat content LSM (C57BL/6 male mice; 10 mg/kg BID + CORT, Day 14): 0.064^b
Whole-body muscle content LSM (C57BL/6 male mice; 10 mg/kg BID + CORT, Day 14): 0.89^b
HOMA-IR LSM (C57BL/6 male mice; 10 mg/kg BID + CORT, Day 15): 0.94^b mmol glucose/μU insulin
Whole-body fat content LSM (C57BL/6 male mice; 10 mg/kg BID + CORT, Day 28): 0.061^b
Whole-body muscle content LSM (C57BL/6 male mice; 10 mg/kg BID + CORT, Day 28): 0.86^b
HOMA-IR LSM (C57BL/6 male mice; 10 mg/kg BID + CORT, Day 29): 0.94^b mmol glucose/μU insulin
HOMA-IR LSM (C57BL/6 male mice; 10 mg/kg BID + CORT, Day 35): 2.16^b mmol glucose/μU insulin
Fat depot weight, Gonadal, Mean (C57BL/6 male mice; 10 mg/kg BID + CORT): 6.02 mg/g body weight
Fat depot weight, Mesenteric, Mean (C57BL/6 male mice; 10 mg/kg BID + CORT): 4.73 mg/g body weight
Fat depot weight, Retroperitoneal, Mean (C57BL/6 male mice; 10 mg/kg BID + CORT): 2.21 mg/g body weight
Fat depot weight, Subcutaneous, Mean (C57BL/6 male mice; 10 mg/kg BID + CORT): 1.95 mg/g body weight
Muscle weight, Quadriceps, Mean (C57BL/6 male mice; 10 mg/kg BID + CORT): 5.90 mg/g body weight
Muscle weight, Tibialis anterior, Mean (C57BL/6 male mice; 10 mg/kg BID + CORT): 2.36 mg/g body weight
Whole-body fat content LSM (C57BL/6 male mice; 10 mg/kg QD + CORT, Day 14): 0.061^b
Whole-body muscle content LSM (C57BL/6 male mice; 10 mg/kg QD + CORT, Day 14): 0.87^b
HOMA-IR LSM (C57BL/6 male mice; 10 mg/kg QD + CORT, Day 15): 1.41^b mmol glucose/μU insulin
Whole-body fat content LSM (C57BL/6 male mice; 10 mg/kg QD + CORT, Day 28): 0.115^ab
Whole-body muscle content LSM (C57BL/6 male mice; 10 mg/kg QD + CORT, Day 28): 0.80^b
HOMA-IR LSM (C57BL/6 male mice; 10 mg/kg QD + CORT, Day 29): 1.88^ab mmol glucose/μU insulin
HOMA-IR LSM (C57BL/6 male mice; 10 mg/kg QD + CORT, Day 35): 2.28^b mmol glucose/μU insulin
Fat depot weight, Gonadal, Mean (C57BL/6 male mice; 10 mg/kg QD + CORT): 8.44 mg/g body weight
